# Reference: patent US20120039816A1, “USE OF 7-CHLORO-N,N,5-TRIMETHYL-4-OXO-3-PHENYL-3,5-DIHYDRO-4H-PYRIDAZINO[4,5-B] INDOLE-1-ACETAMIDE AS A BIOMARKER OF PERIPHERAL BENZODIAZEPINE RECEPTOR LEVELS” (SANOFI-AVENTIS, priority 2008, published 2012)
# Columns and labels:
# PBR [1] = biological target: T1, PBR (Homo sapiens, UniProt P30536); settings: in vitro and in vivo; cited from earlier work
# [2] = biological target: T2, PBR (peripheral benzodiazepine receptor) (Rattus norvegicus, UniProt P16257); test: MicroPET imaging in AMPA-lesioned rat model of neuroinflammation; format: in vivo, Wistar rats
# T2 construct: lesioned striatum of AMPA-injected rats (the region in which PBR expression is induced); from tissue; host or cells: brain (AMPA-lesioned and intact striatum) of Wistar rats, imaged in vivo or cut into 20 µm sections
# Protocol: Wistar rats (average body weight 300 g, centre d'Élevage René Janvier, France) were kept in thermoregulated, humidity controlled facilities under a 12 h/12 h light/dark cycle (light on between 7 h AM and 7 h PM) and were allowed free access to food and water. […] AMPA (0.5 μL) was injected into the right striatum (Bregma+0.7 mm, from sagittal suture: 2.7 mm, depth from brain surface: 5.5 mm).
# (§1) MicroPET imaging was performed 7 days post-AMPA injection in rats and in 11-12 month old transgenic mice. In both mice and rats, anaesthesia was induced by isoflurane 5%, and thereafter maintained by 2-2.5% of isoflurane in a mixture of 70%/30% […]. […] Mice were placed on a bed equipped with an anaesthetic mask allowing heating of the air flow and the rectal temperature was monitored using the Homeothermic Blanket Control Unit.
# (§2) In rats, radiolabelled compounds and unlabelled ligands were injected in the caudal vein with the use of 24 gauge catheter. Radiolabelled compounds were injected concomitantly at the start of the PET acquisition and unlabelled compounds were injected 20 min after injection of radiotracers. PET data were acquired for 80 min. In mice, radiolabelled compounds were injected in the caudal vein using 28 gauge needles immediately before the PET scan initiation. PET data were acquired for 60 min.
# (§3) PET image analysis was performed using ASIPro VM™ (CTI Concorde Microsystems' Analysis Tools and System Setup/Diagnostics Tool) and Brainvisa/Anatomist (http://brainvisa.info/).
# PBR [3] = biological target: T3, PBR (Mus musculus, UniProt P50637); test: MicroPET imaging in APP×PS1 and PS1 transgenic mice; format: in vivo; settings: for uptake in APP×PS1 vs wild type PS1: whole brain, 11-12 month old mice, PET
# T3 construct: from tissue; host or cells: brain of PS1 and APPxPS1 transgenic mice, imaged in vivo at 11-12 months or cut into sections at 20-23 months
# Description: Generation and characterization of single PS1M146L (PS1) and double APP751SL×PS1M146L (APP×PS1) transgenic mice were achieved, as described previously (Blanchard, V. et al. (2003) Exp. Neurol. 184: 247-263). In these animals APP is expressed at a high level in all cortical neurons under the control of the Thy-1 promoter. Human PS1 with the M146L mutation is expressed under the control of the HMG-CoA reductase promoter. […] Both single PS1 and double APP×PS1 mice, provided by Sanofi-Aventis, were used for PET imaging at the age of 11-12 months and autoradiography at 20-23 months.
# as §1, §2, §3
# PBR [4] = biological target: T1, PBR; settings: PET ligand; cited from earlier work
# [5] = Metabolite analysis in rat blood and brain; format: in vivo, Wistar rats
# Protocol: A blood sample was collected and plasma isolated by centrifugation (5 min, 3000 rpm). Plasma proteins were precipitated from 400 μL of serum by addition of 400 μL of acetonitrile. After centrifugation (5 min, 3000 rpm), the supernatant was injected onto the HPLC column. Rat brains were removed and hemispheres were separated. Homogenisation by sonication was performed in 1 mL of acetonitrile per hemisphere. After a rapid centrifugation, the supernatant was separated from the pellet and concentrated under reduced pressure before injection onto the HPLC (see radiochemistry section for HPLC conditions).
# PBR [6] = test: PET imaging in quinolinic acid primate model of neuroinflammation; format: in vivo, Cynomolgus macaques (Macaca fascicularis)
# Protocol: Cynomolgus macaques (Macaca fascicularis) weighing 4-5 kg were housed in thermoregulated, humidity controlled facilities under a 12 h/12 h light/dark cycle (light on between 7 h a.m. and 7 h p.m.) and were allowed free access to food and water. Neuroinflammation was induced by local sterotaxic injections of quinolinic acid (quinolinic acid, Sigma, St. Louis, Mo.; dissolved in 0.1 M PBS, pH 7.2) into the primate striatum (1 injection site into caudate and 2 injection sites into the putamen) during two different surgical interventions where quinolinic acid was injected into one hemisphere on day 1 and the second hemisphere 2 weeks or 7 months later (FIGS. 8 and 9). During each surgical session the animals received 60 nmol of quinolinic acid distributed over three different striatal sites, one 5 μL site in the caudate and two 10 μL sites in the putamen using a 10 μL-Hamilton syringe attached to a 26-gauge needle. […] The excitotoxin was injected at a rate of 0.1 μL/min and the injection syringe left in place for an additional 5 min to avoid backflow of the toxin. Throughout the surgery, the primate temperature was maintained normothermic (rectal temperature, 36° C.±0.6° C., mean±SD). After removing the needle, the skin was sutured and the animals were allowed to recover from anesthesia and returned to their cages when fully awake.
# Imaging sessions were performed before and at various times after quinolinic acid injection (24 hrs, 48 hrs, 9 days, 16 days and 7 months post lesion).
# One hour before PET imaging, animals were anaesthetized by intramuscular injection of a ketamine/xylazine mixture (15 mg/kg/1.5 mg/kg) and intubated. Catheters were then placed in a saphenous vein for radiotracer injection and in a femoral artery for blood sampling. Animals were maintained anaesthetized by an intravenous injection of propofol (Diprivan® 1%; 0.05 mg·kg^−1·min^−1).
# To ensure correct positioning of the animal in the apparatus, the animal's head was secured in a home-made stereotactic frame. PET scans were performed using the high-resolution Focus micro-PET (CTI-Siemens, Knoxville, Tenn.), which acquires 95 contiguous planes simultaneously. For attenuation correction, a transmission scan was first performed using a ^68Ge rotating rod source.
# as §3
# PBR [7] = biological target: PBR (Rattus norvegicus, UniProt P16257); settings: excess unlabelled PK11195 (23 μM) or A (22 μM), FIG. 5
# [8] = systemic, large excess (1 mg/kg), 30 min after radiotracer injection (FIG. 9)
# T1 sequence (P30536 whole entry, species assumed): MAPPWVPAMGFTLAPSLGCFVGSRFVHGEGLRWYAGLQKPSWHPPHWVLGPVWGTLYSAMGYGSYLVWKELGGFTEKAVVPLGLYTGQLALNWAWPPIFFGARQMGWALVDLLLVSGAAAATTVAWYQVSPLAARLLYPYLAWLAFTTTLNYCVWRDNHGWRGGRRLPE
smiles,measurement,setting,value
"CN(C)C(=O)Cc1nn(-c2ccccc2)c(=O)c2c1c1ccc(Cl)cc1n2C [A, 7-chloro-N,N,5-trimethyl-4-oxo-3-phenyl-3,5-dihydro-4H-pyridazino[4,5-b]indole-1-acetamide]",affinity for the PBR,PBR [1],high affinity
"CC[C@@H](C)N([11CH3])C(=O)c1cc2ccccc2c(-c2ccccc2Cl)n1 [[^11C]PK11195, (R)—N—[^11C]Methyl-N-(1-methylpropyl)-1-(2-chlorophenyl)isoquinoline-3-carboxamide]",R1,"[2]; AMPA-injected rats, PET",1.10±0.05
same,binding potential (BP),"[2]; AMPA-injected rats, PET",0.66±0.15
same,uptake in APP×PS1 vs wild type PS1,PBR [3],not significantly higher
same,brain uptake,PBR [4],relatively low brain uptake
same,non-specific binding,PBR [4],high non-specific binding
same,signal to noise ratio,PBR [4],poor signal to noise ratio
"CN(C)C(=O)Cc1nn(-c2ccccc2)c(=O)c2c1c1ccc(Cl)cc1n2[11CH3] [[^11C]-A, 7-Chloro-N,N-dimethyl-5-[^11C]methyl-4-oxo-3-phenyl-3,5-dihydro-4H-pyridazino[4,5-b]indole-1-acetamide]",metabolites present in brain,"[5]; rats, 10, 20 and 30 min after [^11C]-A injection (FIG. 10)",essentially detected the parent compound only
same,metabolites present in blood and plasma,"[5]; rats, 10 and 20 min after [^11C]-A injection (FIG. 10)",essentially detected the parent compound only
same,uptake in whole brain (cerebellum excluded) compared to [^11C]PK11195,"PBR [3]; APP×PS1 and wild type PS1 transgenic mice, 11-12 months (FIG. 6)",higher
same,uptake in APP×PS1 vs wild type PS1,PBR [3],not significantly higher
same,uptake in lesioned striatum,"PBR [6]; 7 months after excitotoxin injection, right striatum",returned to baseline levels
same,"uptake in lesioned right striatum compared to contralateral non-injected striatum and control brain regions (cerebellum, prefrontal cortex)",PBR [6]; 24 hrs after excitotoxin injection (FIG. 8),significantly higher
same,increase in uptake in lesioned striatum,"PBR [6]; 48 hrs after excitotoxin injection, left hemisphere",could still be visualized
same,time window of increased uptake after lesion,PBR [6]; early phase of neuroinflammation (FIG. 9),can be visualised from 24 hrs up to 16 days
same,uptake in contralateral non-injected striatum,PBR [6]; same level as brain regions of a non-injected primate (FIG. 8),remained stable
CCC(C)N(C)C(=O)c1cc2ccccc2c(-c2ccccc2Cl)n1 (stereo not drawn) [PK11195],effect of excess unlabelled ligand on ipsilateral to contralateral ratio of [^11C]-A binding,PBR [7],abolished
same,effect of unlabelled compound on [^11C]-A binding in the controlateral side,"[2]; 1 mg/kg i.v., 20 min post [^11C]-A injection",small increase
same,effect of unlabelled compound on brain uptake of [^11C]-A in lesioned striatum,"[2]; 1 mg/kg i.v., 20 min post [^11C]-A injection (FIG. 3, 4)",significantly reduced
same,effect of excess unlabelled compound on [^11C]-A binding in lesioned striatum,PBR [6]; [8],specific displacement
same,effect of excess unlabelled compound on [^11C]-A binding in non-lesioned control brain regions,PBR [6]; [8],no noticeable changes
